The values below come from US9895363B2, “Methods for modulating function of proliferating cell nuclear antigen (PCNA) and treating cancer with PCNA-targeting compounds” (University of Cincinnati, priority 2010, dated 2018).

One assay deals with PC-3 cells. As to the kind of experiment: Cell cycle distribution by flow cytometry, PC-3. Format: cell-based, Human. As for the experimental part:
The effects of PCNA inhibitors on cell cycle progression were investigated via flow cytometry analysis. Specifically, PC-3 cells were plated into 60 mm plates at 2×10^5 cells/plate and were allowed to attach overnight.
The cells were rinsed with HBSS, detached by trypsinization, suspended in MEM-5% FBS, pelleted by centrifugation, resuspended in PI staining solution (PBS containing 50 μg/mL PI, 100 μg/mL RNase A, and 0.05% Triton X-100), and incubated for 45 min at 37° C. After washing with PBS, the cells were resuspended in PBS for flow cytometry analysis in an Epics-XL-MCL system (Beckman Coulter, Fullerton, Calif.). Thirty thousand cells at each time point were collected to determine their DNA content and to obtain flow cytometric fluorescence histograms (X-axis fluorescence, Y-axis cell number). The three fractions (G0/G1, G2/M and S) were quantified by using the Synchronization Wizard of ModFit LT Flow Cytometry Cell-cycle Analysis Softward (Verity Software House, Topsham, Me.).
Flow cytometry analysis was also performed on cells in which endogenous PCNA was knocked down with transfection of PCNA-specific siRNA. Specifically, PC-3 cells were plated into a 60-mm plate at 2×10^5/plate in antibiotics-free medium and transfected with 200 pmol PCNA specific siRNA or control scrambled siRNA for 24 H using Lifectamine 2000. The cells were then cultured in SFM for 24 H, followed by incubation in fresh SFM or stimulation with medium supplemented with 5% FBS, and sampled at different times for analyses. The PC-3 cells were also subjected to western blot analysis. Specifically, cells were washed and scraped into a lysis buffer (1% Triton X-100, 20 mM Tris-HCl, pH 8.0, 137 mM NaCl, 10% glycerol, 2 mM EDTA, 1 mM PMSF, and a protease inhibitor cocktail) and analyzed by Western blotting analysis as described by Zhang et al. in Tumor-infiltrating Macrophages are Involved in Suppressing Growth and Metastasis of Human Prostate Cancer Cells by INF-beta Gene Therapy in Nude Mice; Clin. Cancer Res. 2002; 8:29:2942-51. Samples were collected at 0 H (48 H after transfection), 24 H, 48 H, and 72 H, respectively.
Fluorescence-activated cell sorting (FACS) analysis was performed on both PC-3 cells and LNCaP cells using PCNA-I1. Specifically, cells were treated with 1 or 10 μM PCNA-I1 and sampled for the flow cytometry analysis at 24 H, 48 H, and 72 H. Expression of DNA damage and apoptosis-related proteins in PC-3 cells and LNCaP cells was also determined. Cisplatin, a well-known drug that induces DNA damage and apoptosis, was included in the experiment. LNCaP cells were treated for 6 H, 12 H, or 18 H with 10 μM PCNA-I1, 10 μM cisplatin, or both.

Assay [1] deals with primary human mammary epithelial cells. Kind of assay: Growth inhibition, mammary epithelial cells. Format: cell-based. The note with it: Epithelial cell, normal cells, read-out: IC50 Values, Breast Epithelial Cells. As for the experimental part: Growth inhibitory effects of PCNA-I1 and PCNA-I2 were assessed in human cancer cell lines, mouse cancer cell lines, immortalized mouse cell lines, and human primary cell lines. Specifically, growth inhibitory effects of PCNA-I1 and PCNA-I2 were assessed using MTT staining in the following cells lines: 1) human cancer cell lines including LNCaP (androgen receptor […]), 22Rv1, DU-145, LAPC-4, and PC-3 (androgen receptor […]) prostate cancer cells; MCF-7 and T47D breast cancer cells; A375 and MDA-MB435 melanoma cells; 2) mouse cancer cell lines including TRAMP-C2RE3 prostate cancer cells, B16 and K1735 melanoma cells, UV2237 fibrosarcoma cells, and CT-26 colon cancer cells; 3) immortalized mouse lung cell lines and mouse endothelial cell lines; and 4) primary human cell lines including umbilical endothelial cells (HUVEC, PromoCell, Heidelberg, Germany), primary bone marrow mesenchymal stem cells (HuMSC, PromoCell), primary human mammary epithelial cells (HuBrEC, Lonza, Walkersville, Md.), primary human prostate epithelial cells (HuPrEC, Lonza), and primary mouse spleen lymphocytes (isolated in this laboratory), and primary mouse bone marrow stromal cells (isolated in this laboratory). […]
IC50 values were derived from growth inhibition curves. […] Inhibition of cell growth was calculated using the formula: growth inhibition (%)=(1−A570 of treated/A570 of control)×100. […]

The test system of the next assay is LNCaP cells. Kind of assay: MTT assay, PCNA-I1 and cisplatin alone or combined, LNCaP. In kind it is cell-based, Human. The note with it: Homo sapiens, LNCaP. As for the experimental part: LNCaP or PC-3 cells were treated with a variety of concentrations of PCNA-I1 (0.1-10 μM) or cisplatin (0.1-10 μM) alone, or with a variety of concentrations of a combination of PCNA-I1 (0.1-10 μM) and cisplatin (0.1-10 μM) for four days. MTT assays were performed and IC50 values for PCNA-I1 and cisplatin were determined.

The mark [2] stands for this setting: 1 μM, 5% FBS after serum starvation, FIGS. 4 and 5.

SMILES strings stand for the structures. Like-named read-outs stand apart in the source and are kept apart here.

As for `Cc1ccsc1C(=O)N/N=C/c1ccc2ccccc2c1O` [PCNA-I1], the “Cells in G1 phase” value in the assay on PC-3 cells (1 μM, 5% FBS after serum starvation, 24-72 H, FIGS. 4 and 5) is “partially attenuated the serum-stimulated G1 decrease at 24 H but led to significant G1 reductions at 48 H and 72 H”. Moreover, the “Cells in S phase” value in the assay with PC-3 cells (setting [2]) was “significantly increased at 24 H”. For the same compound, the “G2/M fraction of cells” value with PC-3 cells (setting [2]) was “increased steadily at 48 H and 72 H”. For the same compound, in the assay with PC-3 cells (1 μM, FIG. 15), the “Cell cycle effect, PC-3, 1 μM” value was “cell growth arrest at S and G2/M phases”. In addition, the “Cell cycle effect, PC-3, 10 μM” value in the assay on PC-3 cells (10 μM, FIG. 15) is given as “more significant G1 arrest”. In addition, the “Apoptosis, PC-3” value in the assay on PC-3 cells (1 or 10 μM, 24, 48, 72 H) is “Apoptosis was not observed”. The IC50 was found to be 1.67 µM in assay [1]; 0.23 µM with LNCaP cells (96 h, MTT, four days, single agent, read-out: IC50 doses for cell growth inhibition, LNCaP, agent alone); 0.067 µM in the assay with LNCaP cells (combined with 0.3 μM cisplatin, read-out: PCNA-I1 concentration giving 50% inhibition in combination, LNCaP).
